From ChEMBL document CHEMBL1141809, “Antioxidative phenolic glycosides from sage (Salvia officinalis)” (J Nat Prod, 1999)

How the values were obtained:
[1] = test system: Radical scavenging activity; assay: Antioxidant activity assessed as DPPH radical scavenging activity after 0.5 hrs; format: functional
[2] = Antioxidant activity assessed as trolox equivalent of ABTS radical scavenging activity in aqueous phase by metmyoglobin assay; format: functional

Structure (SMILES) | IC50 [1] [µM] | Activity [2]
O=C(/C=C/c1ccc(O)c(O)c1)OC[C@H]1O[C@H](O[C@]2(CO)O[C@H](CO)[C@@H](O)[C@@H]2O)[C@H](O)[C@@H](O)[C@@H]1O | 20.1 | 3.7
O=C(/C=C/c1ccc(O)c(O)c1)O[C@H]1O[C@@H](CO[C@H]2OC[C@@](O)(CO)[C@@H]2O)[C@H](O)[C@@H](O)[C@@H]1O | 19.8 | 3.86
